Assay results taken from patent US20250171431A1, “HETEROCYCLIC INHIBITORS OF IGF-1R FOR TREATMENT OF DISEASE” (HORIZON THERAPEUTICS IRELAND DAC, priority 2023, published 2025).

Legend:
IGF-1R [1] = biological target: T1, IGF-1R (Homo sapiens (Human), UniProt P08069); assay: Example B-1: IGF-1R Assay (PC3 cells, IGF1 stimulation, AlphaLISA); format: cell-based; settings: 200 ng/mL IGF1 stimulation, read-out: Biological Activity against IGF-1R IC50
Outline: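 PC3 cells were serum-starved 2 h, treated with serially diluted compounds for 2 h, then stimulated with IGF1 (200 ng/mL final) for 30 min. Lysates were read by AlphaLISA; % inhibition was calculated relative to vehicle and EC80 controls, with IC50 values binned into ranges.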
Target sequence in this assay (P08069 31-1367): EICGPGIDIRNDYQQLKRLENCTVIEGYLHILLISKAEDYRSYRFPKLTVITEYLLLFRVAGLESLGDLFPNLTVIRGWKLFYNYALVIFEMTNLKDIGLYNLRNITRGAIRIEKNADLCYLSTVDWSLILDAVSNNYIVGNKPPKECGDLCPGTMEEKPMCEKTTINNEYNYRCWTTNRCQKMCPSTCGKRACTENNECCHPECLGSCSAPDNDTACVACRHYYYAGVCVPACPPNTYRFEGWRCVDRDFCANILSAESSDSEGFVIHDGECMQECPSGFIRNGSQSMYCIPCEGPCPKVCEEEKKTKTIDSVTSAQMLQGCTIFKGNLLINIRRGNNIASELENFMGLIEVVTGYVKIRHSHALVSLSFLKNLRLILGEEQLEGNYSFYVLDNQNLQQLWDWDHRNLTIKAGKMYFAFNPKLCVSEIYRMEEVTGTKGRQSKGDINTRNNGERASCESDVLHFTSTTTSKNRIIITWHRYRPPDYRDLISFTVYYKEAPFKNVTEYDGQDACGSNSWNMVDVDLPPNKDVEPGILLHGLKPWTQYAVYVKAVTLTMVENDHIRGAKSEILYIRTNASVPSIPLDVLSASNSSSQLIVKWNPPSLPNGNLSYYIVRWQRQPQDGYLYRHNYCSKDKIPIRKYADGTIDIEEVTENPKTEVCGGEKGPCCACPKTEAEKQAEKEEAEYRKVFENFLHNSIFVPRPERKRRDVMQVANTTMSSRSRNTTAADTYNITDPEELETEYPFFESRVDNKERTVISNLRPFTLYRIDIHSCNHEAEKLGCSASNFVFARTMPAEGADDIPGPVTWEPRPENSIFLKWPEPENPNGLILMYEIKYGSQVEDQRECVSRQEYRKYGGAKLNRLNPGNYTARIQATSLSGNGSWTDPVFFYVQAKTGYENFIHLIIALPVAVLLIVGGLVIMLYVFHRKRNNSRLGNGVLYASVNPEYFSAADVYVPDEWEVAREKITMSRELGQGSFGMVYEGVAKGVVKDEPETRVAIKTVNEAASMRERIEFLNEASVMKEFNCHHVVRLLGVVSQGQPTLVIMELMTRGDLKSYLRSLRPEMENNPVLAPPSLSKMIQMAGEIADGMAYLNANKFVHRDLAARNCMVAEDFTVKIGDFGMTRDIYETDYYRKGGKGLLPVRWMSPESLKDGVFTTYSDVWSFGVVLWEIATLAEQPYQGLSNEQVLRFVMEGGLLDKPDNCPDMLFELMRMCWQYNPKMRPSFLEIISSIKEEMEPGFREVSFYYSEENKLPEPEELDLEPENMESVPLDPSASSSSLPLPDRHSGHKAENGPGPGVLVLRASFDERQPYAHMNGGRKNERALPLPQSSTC

IGF-1R [2] = biological target: T1, IGF-1R; assay: Example B-2: IGF-1R Assay (PathHunter cell lines, EC80 agonist challenge); format: cell-based; settings: read-out: IC50 (Biological Activity against IGF-1R)
Experimental: PathHunter cell lines were expanded from freezer stocks according to standard procedures. Cells were seeded in a total volume of 20 μL into white walled, 384-well microplates and incubated for the appropriate time prior to testing.
Cells are pre-incubated with compound followed by EC80 agonist challenge as follows: • 1. Intermediate dilution of sample stocks was performed to generate 5× sample in assay buffer. • 2. 5 μL of 5× sample was added to cells and incubated at 37° C. for 60 minutes. Vehicle concentration was 1%. • 3. 5 μL of 6×EC80 agonist in assay buffer was added to the cells and incubated at room temperature for 3 hours.
Assay signal was generated through a single addition of 12.5 or 15 μL (50% v/v) of PathHunter Detection reagent cocktail for agonist and antagonist assays respectively, followed by a one hour incubation at room temperature. Microplates were read following signal generation with a PerkinElmer Envision™ instrument for chemilumine-scent signal detection.
Compound activity was analyzed using CBIS data analysis suite (ChemInnovation, CA). Percentage inhibition was calculated using the following formula: % Inhibition=100%×(1−(mean RLU of test sample−mean RLU of vehicle control)/(mean RLU of EC80 control−mean RLU of vehicle control)). The activity for representative examples of the invention is shown in the following table, wherein A: IC50≤500 nM; B: 500 nM<IC50≤2 μM; C: […]≤10 μM; D: IC50>[…].
Target sequence in this assay (P08069 31-1367, species assumed): as the sequence (P08069 31-1367) above

| Structure (SMILES) | IC50 (IGF-1R [1]) [nM] | IC50 (IGF-1R [2]) [nM] |
| --- | --- | --- |
| CN(C)CC(=O)N1CCc2cc(Nc3nccc(Nc4cnc5cc(F)c(F)cc5c4)n3)cnc21 [Compound 498, 1-{5-[4-(6,7-difluoro-3-quinolylamino)-2-pyrimidinylamino]-1,7-diaza-1-indanyl}-2-(dimethylamino)-1-ethanone] | 500 to 2000 | 500 to 2000 |
| COc1cc(Nc2nccc(Nc3cnc4c(Cl)cc(F)cc4c3)n2)ccc1O[C@H]1C[C@@H](N(C)C)C1 [Compound 116, 4-(8-chloro-6-fluoro-3-quinolylamino)-2-{3-methoxy-4-[(1s,3s)-3-(dimethylamino)cyclobutoxy]phenylamino}pyrimidine] | ≤ 500 | 500 to 2000 |
| CN(C)CC1COc2cc(Nc3nccc(Nc4cnc5cc(F)c(F)cc5c4)n3)cnc2O1 (stereo not drawn) [Compound 499, 4-(6,7-difluoro-3-quinolylamino)-2-{3-[(dimethylamino)methyl]-2,3-dihydro-1,4-dioxa-5-aza-7-naphthylamino}pyrimidine] | 500 to 2000 | 500 to 2000 |
| CN(C)CC1COc2ccc(Nc3nccc(Nc4cnc5ccc(Cl)cc5c4)n3)cc2O1 (stereo not drawn) [Compound 142, N4-(6-chloroquinolin-3-yl)-N2-(3-((dimethylamino)methyl)-2,3-dihydrobenzo[b][1,4]dioxin-6-yl)pyrimidine-2,4-diamine] | 500 to 2000 | 500 to 2000 |
| COc1cc(Nc2nccc(Nc3cnc4ccccc4c3)n2)ccc1O[C@H]1C[C@@H](N2CCOCC2)C1 [Compound 21, 2-{3-methoxy-4-[(1s,3s)-3-morpholinocyclobutoxy]phenylamino}-4-(3-quinolylamino)pyrimidine] | ≤ 500 | ≤ 500 |
| COc1cc(Nc2nccc(Nc3cnc4cc(F)c(F)cc4c3)n2)c(Cl)cc1O[C@H]1C[C@@H](N(C)C)C1 [Compound 153, N2-(2-chloro-4-((1s,3s)-3-(dimethylamino)cyclobutoxy)-5-methoxyphenyl)-N4-(6,7-difluoroquinolin-3-yl)pyrimidine-2,4-diamine] | ≤ 500 | ≤ 500 |
| COc1cc(Nc2nccc(Nc3cnc4ccccc4c3)n2)ccc1N1CCN(C)CC1 [Compound 94, 2-[3-methoxy-4-(4-methyl-1-piperazinyl)phenylamino]-4-(3-quinolylamino)pyrimidine] | ≤ 500 | ≤ 500 |
| CN(C)CCN1CCc2ccc(Nc3nccc(Nc4cnc5ccccc5c4)n3)cc21 [Compound 143, N2-(1-(2-(dimethylamino)ethyl)indolin-6-yl)-N4-(quinolin-3-yl)pyrimidine-2,4-diamine] | ≤ 500 | ≤ 500 |
| CN1CC(N2CCc3ccc(Nc4nccc(Nc5cnc6ccccc6c5)n4)cc32)C1 [Compound 139, N2-(1-(1-methylazetidin-3-yl)indolin-6-yl)-N4-(quinolin-3-yl)pyrimidine-2,4-diamine] | ≤ 500 | ≤ 500 |
| COc1cc(Nc2nccc(Nc3cnc4cc(F)c(F)cc4c3)n2)ccc1O[C@H]1C[C@@H](N(C)C)C1 [Compound 115, 4-(6,7-difluoro-3-quinolylamino)-2-{3-methoxy-4-[(1s,3s)-3-(dimethylamino)cyclobutoxy]phenylamino}pyrimidine] | ≤ 500 | 500 to 2000 |
| COc1cc(N2CCN(C)CC2)ccc1Nc1nccc(Nc2cnc3ccc(Br)cc3c2)n1 [Compound 466, 4-(6-bromo-3-quinolylamino)-2-[2-methoxy-4-(4-methyl-1-piperazinyl)phenylamino] pyrimidine] | ≤ 500 | 500 to 2000 |
| CN(C)CC(=O)N1CCc2ccc(Nc3nccc(Nc4cnc5cc(F)c(F)cc5c4)n3)cc21 [Compound 147, 1-(6-((4-((6,7-difluoroquinolin-3-yl)amino)pyrimidin-2-yl)amino)indolin-1-yl)-2-(dimethylamino)ethan-1-one] | 500 to 2000 | 500 to 2000 |

Results, then the compound that gave them:

| IC50 (IGF-1R [1]) [nM] | IC50 (IGF-1R [2]) [nM] | Structure (SMILES) |
| --- | --- | --- |
| ≤ 500 | ≤ 500 | COc1cc([C@H]2CC[C@](C)(O)CC2)ccc1Nc1nccc(Nc2cc3cccc(F)c3[nH]c2=O)n1 [Compound 215, 8-fluoro-3-(2-{2-methoxy-4-[(1s,4s)-4-hydroxy-4-methylcyclohexyl]phenylamino}-4-pyrimidinylamino)-1,2-dihydro-2-quinolinone] |
| ≤ 500 | ≤ 500 | CN(C)CC(=O)N1CCc2ccc(Nc3nccc(Nc4cnc5c(F)c(F)ccc5c4)n3)cc21 [Compound 138, 1-(6-((4-((7,8-difluoroquinolin-3-yl)amino)pyrimidin-2-yl)amino)indolin-1-yl)-2-(dimethylamino)ethan-1-one] |
| ≤ 500 | ≤ 500 | CN(C)CC(=O)N1CCOc2cc(Nc3nccc(Nc4cnc5cc(F)c(F)cc5c4)n3)ccc21 [Compound 152, 1-(7-((4-((6,7-difluoroquinolin-3-yl)amino)pyrimidin-2-yl)amino)-2,3-dihydro-4H-benzo[b][1.4]oxazin-4-yl)-2-(dimethylamino)ethan-1-one] |
| ≤ 500 | ≤ 500 | CN(C)CC(=O)N1CCc2ccc(Nc3nccc(Nc4cnc5ccc(Cl)cc5c4)n3)cc21 [Compound 129, 1-(6-((4-((6-chloroquinolin-3-yl)amino)pyrimidin-2-yl)amino)indolin-1-yl)-2-(dimethylamino)ethan-1-one] |
| ≤ 500 | ≤ 500 | CN(C)CC1CN(C)c2cc(Nc3nccc(Nc4cnc5cc(F)c(F)cc5c4)n3)ccc2O1 (stereo not drawn) [Compound 148, N4-(6,7-difluoroquinolin-3-yl)-N2-(2-((dimethylamino)methyl)-4-methyl-3,4-dihydro-2H-benzo[b][1,4]oxazin-6-yl)pyrimidine-2,4-diamine] |
| ≤ 500 | ≤ 500 | c1ccc2ncc(Nc3ccnc(Nc4ccc5ccn(CC6CCCC6)c5c4)n3)cc2c1 [Compound 502, 2-[1-(cyclopentylmethyl)-6-indolylamino]-4-(3-quinolylamino)pyrimidine] |
| ≤ 500 | ≤ 500 | COc1cc(Nc2nccc(Nc3cnc4ccccc4c3)n2)ccc1N1CCC(N2CCOCC2)CC1 [Compound 3, 2-[3-methoxy-4-(4-morpholino-1-piperidyl)phenylamino]-4-(3-quinolylamino)pyrimidine] |
| ≤ 500 | 500 to 2000 | COc1cc(C2CCOCC2)ccc1Nc1nccc(Nc2cc3cccc(F)c3[nH]c2=O)n1 [Compound 220, 8-fluoro-3-{2-[2-methoxy-4-(tetrahydro-2H-pyran-4-yl)phenylamino]-4-pyrimidinylamino}-1,2-dihydro-2-quinolinone] |
| ≤ 500 | ≤ 500 | COc1cc(Nc2nccc(Nc3cnc4ccc(Cl)cc4c3)n2)ccc1OCCCN1CCCCC1 [Compound 196, 4-(6-chloro-3-quinolylamino)-2-[3-methoxy-4-(3-piperidinopropoxy)phenylamino]pyrimidine] |
| ≤ 500 | ≤ 500 | CN(C)CC1COc2cc(Nc3nccc(Nc4cnc5ccc(Cl)cc5c4)n3)ccc2O1 (stereo not drawn) [Compound 136, N4-(6-chloroquinolin-3-yl)-N2-(2-((dimethylamino)methyl)-2,3-dihydrobenzo[b][1,4]dioxin-6-yl)pyrimidine-2,4-diamine] |
| ≤ 500 | ≤ 500 | CN(C)CC1COc2ccc(Nc3nccc(Nc4cnc5ccccc5c4)n3)cc2O1 (stereo not drawn) [Compound 140, N2-(3-((dimethylamino)methyl)-2,3-dihydrobenzo[b][1,4]dioxin-6-yl)-N4-(quinolin-3-yl)pyrimidine-2,4-diamine] |
| ≤ 500 | ≤ 500 | CN(C)CC1COc2cc(Nc3nccc(Nc4cc5ccccc5nc4C(N)=O)n3)ccc2O1 (stereo not drawn) [Compound 171, 3-((2-((2-((dimethylamino)methyl)-2,3-dihydrobenzo[b][1,4]dioxin-6-yl)amino)pyrimidin-4-yl)amino)quinoline-2-carboxamide] |
| ≤ 500 | ≤ 500 | CN(C)CC(=O)N1CCc2ncc(Nc3nccc(Nc4cnc5ccc(Cl)cc5c4)n3)cc21 [Compound 141, 1-(6-((4-((6-chloroquinolin-3-yl)amino)pyrimidin-2-yl)amino)-2,3-dihydro-1H-pyrrolo[3,2-b]pyridin-1-yl)-2-(dimethylamino)ethan-1-one] |
| ≤ 500 | ≤ 500 | CN(C)C[C@@H]1COc2cc(Nc3nccc(Nc4cnc5ccc(Cl)cc5c4)n3)ccc2O1 [Compound 145, (R)—N4-(6-chloroquinolin-3-yl)-N2-(2-((dimethylamino)methyl)-2,3-dihydrobenzo[b][1,4]dioxin-6-yl)pyrimidine-2,4-diamine] |
| ≤ 500 | > 10000 | COc1cc(Nc2nccc(Nc3cc4cccc(F)c4[nH]c3=O)n2)ccc1C1CCOCC1 [Compound 219, 8-fluoro-3-{2-[3-methoxy-4-(tetrahydro-2H-pyran-4-yl)phenylamino]-4-pyrimidinylamino}-1,2-dihydro-2-quinolinone] |
